According to PubChem BioAssay AID328 (DTP/NCI, 2004):
“And” between values parts separate entries of the source, which are not always exact repeats. Identical values can stand only once. Toxic doses and inconclusive results are not listed.

Tested on: BDF1 mice, P388 leukemia ip, median survival T/C
Assay: NCI In Vivo Anticancer Drug Screen. Data for tumor model P388 Leukemia (intraperitoneal) in B6D2F1 (BDF1) mice
Conditions: endpoint: median survival time, higher = longer survival
Method in brief: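 In tumour-bearing mice, survival after compound treatment is set against the vehicle group and given as a quotient.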

`COC(=O)[C@@H](O)[C@](O)(CCC(C)C)C(=O)O[C@@H]1C(OC)=C[C@]23CCCN2CCc2cc4c(cc2[C@H]13)OCO4` was tested, and the T/C (dose: 0.25 mg/kg/injection, schedule: Q01DX009 (ip), vehicle: saline) was 115 % of control, the T/C (dose: 0.25 mg/kg/injection, schedule: Q03HX008 (ip), vehicle: saline) was 115 % of control and the T/C (dose: 0.25 mg/kg/injection, schedule: Q03HX016 (ip), vehicle: saline) was 120 % of control. The T/C (dose: 0.38 mg/kg/injection, schedule: Q01DX010 (ip), vehicle: saline) was 118 % of control, the T/C (dose: 0.41 mg/kg/injection, schedule: Q01DX009 (ip), vehicle: saline) was 108 % of control and the T/C (dose: 0.5 mg/kg/injection, schedule: Q01DX006 (iv), vehicle: saline) was 100 % of control. For the same compound, the T/C (dose: 0.5 mg/kg/injection, schedule: Q01DX009 (ip), vehicle: saline) was 110 % of control, the T/C (dose: 0.5 mg/kg/injection, schedule: Q01DX009 (oral), vehicle: saline) was 110 % of control and the T/C (dose: 0.5 mg/kg/injection, schedule: Q01DX009 (sc), vehicle: saline) was 110 % of control. For the same compound, the T/C (dose: 0.5 mg/kg/injection, schedule: Q03HX008 (ip), vehicle: saline) was 110 % of control, the T/C (dose: 0.5 mg/kg/injection, schedule: Q03HX016 (ip), vehicle: saline) was 120 % of control and the T/C (dose: 0.62 mg/kg/injection, schedule: Q01DX009 (ip), vehicle: saline) was 108 % of control. For the same compound, the T/C (dose: 1.0 mg/kg/injection, schedule: Q01DX006 (iv), vehicle: saline) was 110 % of control, the T/C (dose: 1.0 mg/kg/injection, schedule: Q01DX009 (ip), vehicle: saline) was 120 % of control and the T/C (dose: 1.0 mg/kg/injection, schedule: Q01DX009 (oral), vehicle: saline) was 110 % of control. The T/C (dose: 1.0 mg/kg/injection, schedule: Q01DX009 (sc), vehicle: saline) was 110 % of control, the T/C (dose: 1.0 mg/kg/injection, schedule: Q03HX008 (ip), vehicle: saline) was 120 % of control and the T/C (dose: 1.0 mg/kg/injection, schedule: Q03HX024 (ip), vehicle: saline) was 200 % of control. The T/C (dose: 1.0 mg/kg/injection, schedule: Q04DX003 (ip), vehicle: saline) was 110 % of control, the T/C (dose: 1.5 mg/kg/injection, schedule: Q01DX009 (ip), vehicle: saline) was 118 % of control and the T/C (dose: 1.87 mg/kg/injection, schedule: Q01DX009 (ip), vehicle: water) was 150 % of control and 161 % of control. The T/C (dose: 2.0 mg/kg/injection, schedule: Q01DX001 (ip), vehicle: saline) was 100 % of control, the T/C (dose: 2.0 mg/kg/injection, schedule: Q01DX001 (iv), vehicle: saline) was 110 % of control and the T/C (dose: 2.0 mg/kg/injection, schedule: Q01DX001 (oral), vehicle: saline) was 110 % of control. The T/C (dose: 2.0 mg/kg/injection, schedule: Q01DX001 (sc), vehicle: saline) was 110 % of control, the T/C (dose: 2.0 mg/kg/injection, schedule: Q01DX006 (iv), vehicle: saline) was 120 % of control and the T/C (dose: 2.0 mg/kg/injection, schedule: Q01DX009 (ip), vehicle: saline) was 120 % of control. For the same compound, the T/C (dose: 2.0 mg/kg/injection, schedule: Q01DX009 (oral), vehicle: saline) was 110 % of control, the T/C (dose: 2.0 mg/kg/injection, schedule: Q01DX009 (sc), vehicle: saline) was 115 % of control and the T/C (dose: 2.0 mg/kg/injection, schedule: Q03HX016 (ip), vehicle: saline) was 177 % of control. For the same compound, the T/C (dose: 2.0 mg/kg/injection, schedule: Q03HX024 (ip), vehicle: saline) was 222 % of control, the T/C (dose: 2.0 mg/kg/injection, schedule: Q04DX003 (ip), vehicle: saline) was 115 % of control and the T/C (dose: 2.0 mg/kg/injection, schedule: Q08DX002 (ip), vehicle: saline) was 110 % of control. The T/C (dose: 3.0 mg/kg/injection, schedule: Q01DX010 (ip), vehicle: saline) was 181 % of control, the T/C (dose: 3.75 mg/kg/injection, schedule: Q01DX009 (ip), vehicle: water) was 172 % of control and 188 % of control and the T/C (dose: 4.0 mg/kg/injection, schedule: Q01DX001 (ip), vehicle: saline) was 110 % of control. The T/C (dose: 4.0 mg/kg/injection, schedule: Q01DX001 (iv), vehicle: saline) was 105 % of control, the T/C (dose: 4.0 mg/kg/injection, schedule: Q01DX001 (oral), vehicle: saline) was 110 % of control and the T/C (dose: 4.0 mg/kg/injection, schedule: Q01DX001 (sc), vehicle: saline) was 110 % of control. For the same compound, the T/C (dose: 4.0 mg/kg/injection, schedule: Q03HX008 (ip), vehicle: saline) was 166 % of control, the T/C (dose: 4.0 mg/kg/injection, schedule: Q04DX003 (ip), vehicle: saline) was 110 % of control and the T/C (dose: 4.0 mg/kg/injection, schedule: Q08DX002 (ip), vehicle: saline) was 105 % of control. The T/C (dose: 6.0 mg/kg/injection, schedule: Q01DX009 (ip), vehicle: saline) was 163 % of control, the T/C (dose: 6.0 mg/kg/injection, schedule: Q01DX010 (ip), vehicle: saline) was 182 % of control and the T/C (dose: 7.5 mg/kg/injection, schedule: Q01DX009 (ip), vehicle: saline) was 195 % of control. For the same compound, the T/C (dose: 7.5 mg/kg/injection, schedule: Q01DX009 (ip), vehicle: water) was 266 % of control and 272 % of control, the T/C (dose: 8.0 mg/kg/injection, schedule: Q01DX001 (ip), vehicle: saline) was 110 % of control and the T/C (dose: 8.0 mg/kg/injection, schedule: Q01DX001 (iv), vehicle: saline) was 110 % of control. The T/C (dose: 8.0 mg/kg/injection, schedule: Q01DX001 (oral), vehicle: saline) was 105 % of control, the T/C (dose: 8.0 mg/kg/injection, schedule: Q01DX001 (sc), vehicle: saline) was 100 % of control and the T/C (dose: 8.0 mg/kg/injection, schedule: Q01DX006 (iv), vehicle: saline) was 188 % of control. The T/C (dose: 8.0 mg/kg/injection, schedule: Q01DX009 (ip), vehicle: saline) was 235 % of control and 172 % of control and 222 % of control, the T/C (dose: 8.0 mg/kg/injection, schedule: Q01DX009 (oral), vehicle: saline) was 200 % of control and the T/C (dose: 8.0 mg/kg/injection, schedule: Q01DX009 (sc), vehicle: saline) was 200 % of control and 205 % of control. For the same compound, the T/C (dose: 12.0 mg/kg/injection, schedule: Q01DX010 (ip), vehicle: saline) was 208 % of control, the T/C (dose: 15.0 mg/kg/injection, schedule: Q01DX009 (ip), vehicle: water) was 105 % of control and the T/C (dose: 16.0 mg/kg/injection, schedule: Q01DX001 (ip), vehicle: saline) was 110 % of control. For the same compound, the T/C (dose: 16.0 mg/kg/injection, schedule: Q01DX001 (iv), vehicle: saline) was 120 % of control, the T/C (dose: 16.0 mg/kg/injection, schedule: Q01DX001 (oral), vehicle: saline) was 115 % of control and the T/C (dose: 16.0 mg/kg/injection, schedule: Q01DX001 (sc), vehicle: saline) was 110 % of control. The T/C (dose: 16.0 mg/kg/injection, schedule: Q01DX009 (ip), vehicle: saline) was 305 % of control and 209 % of control, the T/C (dose: 16.0 mg/kg/injection, schedule: Q01DX009 (oral), vehicle: saline) was 161 % of control and the T/C (dose: 16.0 mg/kg/injection, schedule: Q01DX009 (sc), vehicle: saline) was 105 % of control. For the same compound, the T/C (dose: 16.0 mg/kg/injection, schedule: Q04DX003 (ip), vehicle: saline) was 150 % of control, the T/C (dose: 24.0 mg/kg/injection, schedule: Q01DX010 (ip), vehicle: saline) was 252 % of control and the T/C (dose: 32.0 mg/kg/injection, schedule: Q08DX002 (ip), vehicle: saline) was 111 % of control. For the same compound, the T/C (dose: 125.0 micrograms/kg/injection, schedule: Q03HX024 (ip), vehicle: saline) was 100 % of control, the T/C (dose: 250.0 micrograms/kg/injection, schedule: Q03HX024 (ip), vehicle: saline) was 110 % of control and the T/C (dose: 500.0 micrograms/kg/injection, schedule: Q03HX024 (ip), vehicle: saline) was 120 % of control.
